# Test results taken from US20240116985A1, “STAPLED PEPTIDES AND METHODS THEREOF” (priority 2020, published 2024).
# Like-named read-outs stand apart in the source and are kept apart here.
# What was measured:
# [1] = biological target: T1, full-length beta-Catenin (Uniprot ID P35222) (Homo sapiens, UniProt P35222); assay: Fluorescence polarization IC50 (beta-catenin / 5FAM-TCF4 10-53 competition); format: binding; conditions: fluorescence polarization; read-out: beta-Catenin FP IC50
# T1 construct: 10 nM full-length beta-Catenin (Uniprot ID P35222)
# T1 sequence (P35222 1-781): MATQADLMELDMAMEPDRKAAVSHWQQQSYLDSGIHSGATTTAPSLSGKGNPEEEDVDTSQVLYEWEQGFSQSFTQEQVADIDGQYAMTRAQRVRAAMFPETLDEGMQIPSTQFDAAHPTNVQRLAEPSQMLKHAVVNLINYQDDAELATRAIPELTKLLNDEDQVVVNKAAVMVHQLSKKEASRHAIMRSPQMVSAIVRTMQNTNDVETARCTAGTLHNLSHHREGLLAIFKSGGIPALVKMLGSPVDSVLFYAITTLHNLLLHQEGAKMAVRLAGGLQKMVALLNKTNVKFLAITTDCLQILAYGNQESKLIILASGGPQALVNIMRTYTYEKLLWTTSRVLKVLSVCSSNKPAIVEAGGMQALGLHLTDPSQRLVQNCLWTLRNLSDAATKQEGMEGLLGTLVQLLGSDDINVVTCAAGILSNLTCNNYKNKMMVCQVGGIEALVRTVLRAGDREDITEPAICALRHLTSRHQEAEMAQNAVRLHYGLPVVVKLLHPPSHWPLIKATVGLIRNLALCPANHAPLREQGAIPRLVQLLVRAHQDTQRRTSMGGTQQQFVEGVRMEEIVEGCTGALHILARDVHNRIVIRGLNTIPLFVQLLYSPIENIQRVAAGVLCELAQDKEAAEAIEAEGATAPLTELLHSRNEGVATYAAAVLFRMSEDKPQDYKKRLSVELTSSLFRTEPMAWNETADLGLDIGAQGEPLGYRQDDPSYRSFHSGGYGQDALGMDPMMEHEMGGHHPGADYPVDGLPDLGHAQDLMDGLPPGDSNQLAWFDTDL
# [2] = biological target: T2, beta-catenin/TCF4 engagement (Homo sapiens, UniProt P35222); assay: Nano-BRET target engagement assay (B-cat-Halo & TCF4-Luc in HEK293 cells); format: cell-based; conditions: read-out: NanoBRET Abs IC50
# T2 construct: expressed in transfected cells; host or cells: HEK293
# T2 sequence (P35222 1-781): T1 sequence (P35222 1-781)
IC50 [1],IC50 ([2]; absolute IC50),IC50 [2],SMILES
12 nM,> 20000 nM,,"CC(=O)N1CCC[C@]12CC=CCCCC1(CCCC=CCCCOC(=O)N3CC[C@@](C(=O)N[C@@H](Cc4ccsc4)C(=O)N[C@@H](Cc4csc5ccccc45)C(=O)N[C@@H](CCO)C(N)=O)(C3)NC(=O)[C@H](CC(C)C)NC(=O)[C@H](Cc3ccccc3)NC(=O)[C@H](C)NC(=O)[C@H](C)NC(=O)[C@H](CC(=O)O)NC(=O)[C@H](CC(=O)O)NC1=O)NC(=O)[C@H](Cc1ccc(O)cc1)NC(=O)[C@H](CC(=O)O)NC2=O (stereo partly drawn) [I-1512, Ac-PL3-Asp-Tyr-B5-Asp-Asp-Ala-Ala-Phe-Leu-PyrS2-3Thi-BztA-Hse-NH2]"
10 nM,> 20000 nM,,"CC(=O)N1CCC[C@]12CC=CCCCC1(CCCC=CCCCOC(=O)N3CC[C@@](C(=O)N[C@@H](Cc4ccccc4Cl)C(=O)N[C@@H](Cc4csc5ccccc45)C(=O)N[C@H](C(N)=O)[C@@H](C)O)(C3)NC(=O)[C@H](CC(C)C)NC(=O)[C@H](Cc3ccccc3)NC(=O)[C@H](C)NC(=O)[C@H](CCCCNC(C)C)NC(=O)[C@H](CC(=O)O)NC(=O)[C@H](CC(=O)O)NC1=O)NC(=O)[C@H](CC(C)(C)C)NC(=O)[C@H](CC(=O)O)NC2=O (stereo partly drawn) [I-1276, Ac-PL3-Asp-Npg-B5-Asp-Asp-iPrLys-Ala-Phe-Leu-PyrS2-2C1F-BztA-Thr-NH2]"
8 nM,4600 nM,,"CC(=O)N1CCC[C@]12CC=CCCCC1(CCCC=CCCCOC(=O)N3CC[C@@](C(=O)N[C@@H](Cc4ccccc4C(F)(F)F)C(=O)N[C@@H](Cc4ccc5c(c4)CCC5)C(=O)N[C@@H](C)C(N)=O)(C3)NC(=O)[C@H](CC(C)C)NC(=O)[C@H](Cc3ccccc3)NC(=O)[C@H](C)NC(=O)[C@H](CCC(N)=O)NC(=O)[C@H](Cc3cccc(C(=O)O)c3)NC(=O)[C@H](CC(=O)O)NC1=O)NC(=O)[C@H](CC(C)(C)C)NC(=O)[C@H](CC(=O)O)NC2=O (stereo partly drawn) [I-2298, Ac-PL3-Asp-Npg-B5-Asp-3COOHF-Gln-Ala-Phe-Leu-PyrS2-2F3MeF-5IndA-Ala-NH2]"
33 nM,31800 nM,,"CC(=O)N1CCC[C@]12CC=CCCCC1(CCCC=CCCCOC(=O)N3CC[C@@](C(=O)N[C@@H](Cc4ccsc4)C(=O)N[C@@H](Cc4ccc5ccccc5c4)C(=O)N[C@@H](CO)C(N)=O)(C3)NC(=O)[C@H](CC(C)C)NC(=O)[C@H](Cc3ccccc3)NC(=O)[C@H](C)NC(=O)[C@H](C)NC(=O)[C@H](CC(=O)O)NC(=O)[C@H](CC(=O)O)NC1=O)NC(=O)[C@H](CC(C)(C)C)NC(=O)[C@H](CC(=O)O)NC2=O (stereo partly drawn) [I-1239, Ac-PL3-Asp-Npg-B5-Asp-Asp-Ala-Ala-Phe-Leu-PyrS2-3Thi-2NapA-Ser-NH2]"
22 nM,,10900 nM,"CC(=O)N1CCC[C@]12CC=CCCCC1(CCCC=CCCCOC(=O)N3CC[C@@](C(=O)N[C@@H](CC4CCC4)C(=O)N[C@@H](Cc4csc5ccccc45)C(=O)N[C@@H](CO)C(N)=O)(C3)NC(=O)[C@H](CC(C)C)NC(=O)[C@H](Cc3ccccc3)NC(=O)[C@H](C)NC(=O)[C@H](C)NC(=O)[C@H](Cc3cccc(C(=O)O)c3)NC(=O)[C@H](CC(=O)O)NC1=O)NC(=O)[C@H](CC(C)(C)C)NC(=O)[C@H](CC(=O)O)NC2=O (stereo partly drawn) [I-1898, Ac-PL3-Asp-Npg-B5-Asp-3COOHF-Ala-Ala-Phe-Leu-PyrS2-Cba-BztA-Ser-NH2]"
15 nM,6500 nM,,"CC(=O)N1CCC[C@]12CC=CCCCC1(CCCC=CCCCOC(=O)N3CC[C@@](C(=O)N[C@@H](Cc4ccsc4)C(=O)N[C@@H](Cc4csc5ccccc45)C(=O)N[C@@H](CO)C(N)=O)(C3)NC(=O)[C@H](CC(C)C)NC(=O)[C@H](Cc3ccccc3)NC(=O)[C@H](C)NC(=O)[C@H](C)NC(=O)[C@H](Cc3ccccc3C(=O)O)NC(=O)[C@H](CC(=O)O)NC1=O)NC(=O)[C@H](CC(C)(C)C)NC(=O)[C@H](CC(=O)O)NC2=O (single isomer, unassigned) [I-1666, Ac-PL3-Asp-Npg-B5-Asp-2COOHF-Ala-Ala-Phe-Leu-PyrS2-3Thi-BztA-Ser-NH2]"
16 nM,3200 nM,,"CC(=O)N1CCC[C@]12CC=CCCCC1(CCCC=CCCCOC(=O)N3CC[C@@](C(=O)N[C@@H](Cc4ccsc4)C(=O)N[C@@H](Cc4csc5ccccc45)C(=O)N[C@@H](C)C(N)=O)(C3)NC(=O)[C@H](CC(C)C)NC(=O)[C@H](Cc3ccccc3)NC(=O)[C@H](C)NC(=O)C(C)(C)NC(=O)[C@H](Cc3ccc(F)c(C(=O)O)c3)NC(=O)[C@H](CC(=O)O)NC1=O)NC(=O)[C@H](CC(C)(C)C)NC(=O)[C@H](CC(=O)O)NC2=O (stereo partly drawn) [I-2207, Ac-PL3-Asp-Npg-B5-Asp-4F3COOHF-Aib-Ala-Phe-Leu-PyrS2-3Thi-BztA-Ala-NH2]"
191 nM,> 20000 nM,,"CC(=O)N1CCC[C@]12CC=CCCCC1(CCCC=CCCCOC(=O)N3CC[C@@](C(=O)N[C@@H](Cc4ccccc4)C(=O)N[C@@H](Cc4csc5ccccc45)C(=O)N[C@@H](CCC(N)=O)C(N)=O)(C3)NC(=O)[C@H](CC(C)C)NC(=O)[C@H](Cc3ccccc3)NC(=O)[C@H](C)NC(=O)[C@H](CCCCNC(C)C)NC(=O)[C@H](CCC(N)=O)NC(=O)[C@H](CC(=O)O)NC1=O)NC(=O)[C@H](CC1CCCCC1)NC(=O)[C@H](CC(N)=O)NC2=O (stereo partly drawn) [I-1648, Ac-PL3-Asn-Cha-B5-Asp-Gln-iPrLys-Ala-Phe-Leu-PyrS2-Phe-BztA-Gln-NH2]"
10 nM,18100 nM,,"COCCC(=O)N1CCC[C@]12CC=CCCCC1(CCCC=CCCCOC(=O)N3CC[C@@](C(=O)N[C@@H](Cc4ccccc4Cl)C(=O)N[C@@H](Cc4csc5ccccc45)C(=O)N[C@@H](C(N)=O)[C@H](C)O)(C3)NC(=O)[C@H](CC(N)=O)NC(=O)[C@H](Cc3ccccc3)NC(=O)[C@H](C)NC(=O)[C@H](C)NC(=O)[C@H](CC(=O)O)NC(=O)[C@H](CC(=O)O)NC1=O)NC(=O)[C@H](CC(C)(C)C)NC(=O)[C@H](CC(=O)O)NC2=O (stereo partly drawn) [I-1259, MeOPr-PL3-Asp-Npg-B5-Asp-Asp-Ala-Ala-Phe-Asn-PyrS2-2C1F-BztA-dThr-NH2]"
19 nM,,33400 nM,"CC(=O)N1CCC[C@]12CC=CCCCC1(CCCC=CCCCOC(=O)N3CC[C@@](C(=O)N[C@@H](Cc4ccsc4)C(=O)N[C@@H](Cc4csc5ccccc45)C(=O)N[C@@H](CCC(N)=O)C(N)=O)(C3)NC(=O)[C@H](CCO)NC(=O)[C@H](Cc3cccc(C(=O)O)c3)NC(=O)[C@H](C)NC(=O)[C@H](C)NC(=O)[C@H](CCc3ccc(O)cc3)NC(=O)[C@H](CC(=O)O)NC1=O)NC(=O)[C@H](CC(C)(C)C)NC(=O)[C@H](CC(=O)O)NC2=O (stereo partly drawn) [I-2116, Ac-PL3-Asp-Npg-B5-Asp-hTyr-Ala-Ala-3COOHF-Hse-PyrS2-3Thi-BztA-Gln-NH2]"
11 nM,,20200 nM,"CC(=O)N1CCC[C@]12CC=CCCCC1(CCCC=CCCCOC(=O)N3CC[C@@](C(=O)N[C@@H](Cc4ccsc4)C(=O)N[C@@H](Cc4csc5ccccc45)C(=O)N[C@@H](C)C(N)=O)(C3)NC(=O)[C@H](CC(C)C)NC(=O)[C@H](Cc3ccccc3)NC(=O)[C@H](C)NC(=O)[C@H](CCCCNC(C)C)NC(=O)[C@H](Cc3cccc(C(=O)O)c3)NC(=O)[C@H](CC(=O)O)NC1=O)NC(=O)[C@H](CC(C)(C)C)NC(=O)[C@H](CC(=O)O)NC2=O (stereo partly drawn) [I-1915, Ac-PL3-Asp-Npg-B5-Asp-3COOHF-iPrLys-Ala-Phe-Leu-PyrS2-3Thi-BztA-Ala-NH2]"
93 nM,> 20000 nM,,"CC(=O)N1CCC[C@]12CC=CCCCC1(CCCC=CCCCOC(=O)N3CC[C@@](C(=O)N[C@@H](Cc4ccsc4)C(=O)N[C@@H](Cc4csc5ccccc45)C(=O)N[C@@H](CCC(N)=O)C(N)=O)(C3)NC(=O)[C@H](CC(C)C)NC(=O)[C@H](Cc3ccccc3)NC(=O)[C@H](C)NC(=O)[C@H](CCCCNC(C)C)NC(=O)[C@H](CCC(N)=O)NC(=O)[C@H](CC(=O)O)NC1=O)NC(=O)[C@H](CC1CCCCC1)NC(=O)[C@H](CC(N)=O)NC2=O (stereo partly drawn) [I-2446, Ac-PL3-Asn-Cha-B5-Asp-Gln-iPrLys-Ala-Phe-Leu-PyrS2-3Thi-BztA-Gln-NH2]"
15 nM,10000 nM,,"CC(=O)N1CCC[C@]12CC=CCCCC1(CCCC=CCCCOC(=O)N3CC[C@@](C(=O)N[C@@H](Cc4ccccc4C)C(=O)N[C@@H](Cc4csc5ccccc45)C(=O)N[C@@H](CCC(N)=O)C(N)=O)(C3)NC(=O)[C@H](CC(C)C)NC(=O)[C@H](Cc3ccccc3)NC(=O)[C@H](C)NC(=O)[C@H](C)NC(=O)[C@H](CN(CC(=O)O)CC(F)(F)F)NC(=O)[C@H](CC(=O)O)NC1=O)NC(=O)[C@H](CC(C)(C)C)NC(=O)[C@H](CC(=O)O)NC2=O (stereo partly drawn) [I-1725, Ac-PL3-Asp-Npg-B5-Asp-TfeGA-Ala-Ala-Phe-Leu-PyrS2-2MeF-BztA-Gln-NH2]"
